Our source for the IC50 values is patent US10633419B2, “Immunomodulators” (BRISTOL-MYERS SQUIBB COMPANY, priority 2014, dated 2020).

Positions of bridges follow the written chain, without caps; N, C: chain ends. Non-standard residues stand in square brackets, D forms with d. Residues, ends and D or L forms follow the SMILES beside them. ξ: configuration not given here. *: point of attachment. Trp(1-CH2COOH) = N[C@@H](Cc1cn(CC(=O)O)c2ccccc12)C(=O)O; d(cisHyp) = O=C(O)[C@H]1C[C@@H](O)CN1; PEG6 = NCCOCCOCCOCCOCCOCCOCCC(=O)O; Palmitoyl = CCCCCCCCCCCCCCCC(=O)*; Hyp = O=C(O)[C@@H]1C[C@@H](O)CN1; Undecanoyl = CCCCCCCCCCC(=O)*; NMeNle = CCCC[C@H](NC)C(=O)O; NMeA = CN[C@@H](C)C(=O)O; Aun = NCCCCCCCCCCC(=O)O; Dab = NCC[C@H](N)C(=O)O; Dap = NC[C@H](N)C(=O)O; ξC = NC(CS)C(=O)O

In one test the target is T1, PD-L1 (Homo sapiens, UniProt Q9NZQ7).
T1 construct: hPDL1(19-239)-TVMV-His; made in house; host or cells: HEK293T
T1 sequence (Q9NZQ7 with tags, fused parts or gaps): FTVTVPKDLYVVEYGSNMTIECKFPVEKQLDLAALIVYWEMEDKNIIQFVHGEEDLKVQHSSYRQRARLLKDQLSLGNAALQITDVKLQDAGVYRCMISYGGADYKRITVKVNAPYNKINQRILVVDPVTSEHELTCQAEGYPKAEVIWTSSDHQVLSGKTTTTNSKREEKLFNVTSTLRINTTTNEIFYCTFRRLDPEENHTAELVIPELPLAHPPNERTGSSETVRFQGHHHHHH
The test is described as follows: PD-1/PD-L1 Homogenous Time-Resolved Fluorescence (HTRF) binding assay (PD-1-Ig/PD-L1-His). As to conditions: inhibition of PD-1-Ig binding to PD-L1-TVMV-His; value given as number; read-out: HTRF IC50. An outline of the steps: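 HTRF competition in dPBS with 0.1% BSA and 0.05% Tween-20: 20 nM PD-1-Ig added after 15 min compound pre-incubation with 10 nM PD-L1-His, then another 15 min. Signal (665/620 nm) after 30 min with APC anti-His (20 nM) and Eu anti-Ig (1 nM).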
In general, IC50 refers to the midpoint of a concentration-inhibition curve. In the case of `CCCCCCCCCCC(=O)NCCCC[C@H](NC(=O)CCOCCOCCOCCOCCOCCOCCNC(=O)[C@@H]1CSCC(=O)N[C@@H](Cc2ccc(O)cc2)C(=O)N(C)[C@@H](C)C(=O)N[C@@H](CC(N)=O)C(=O)N2CCC[C@H]2C(=O)N[C@@H](CN)C(=O)N[C@@H](CCC(N)=O)C(=O)N2C[C@H](O)C[C@@H]2C(=O)N[C@@H](Cc2c[nH]c3ccccc23)C(=O)N[C@@H](CO)C(=O)N[C@@H](Cc2cn(CC(=O)O)c3ccccc23)C(=O)N(C)[C@@H](CCCC)C(=O)N(C)[C@@H](CCCC)C(=O)N[C@@H](CC(C)C)C(=O)N1)C(=O)O` [Example 11062] ({CH2CO}-Y[NMeA]NP[Dap]Q[d(cisHyp)]WS[Trp(1-CH2COOH)][NMeNle][NMeNle]LC[PEG6]K(Undecanoyl)-OH; thioether N-14), the 50% inhibitory concentration (IC50) is 456 nM.

The same test, now with this note: inhibition of PD-1-Ig binding to PD-L1-TVMV-His; value given as range class; read-out: HTRF IC50.
Take `CCCCCCCCCCCCCCCC(=O)NCCCC[C@H](NC(=O)CNC(=O)[C@H](CO)NC(=O)CNC(=O)[C@H](CO)NC(=O)CNC(=O)[C@@H]1CSCC(=O)N[C@@H](Cc2ccc(O)cc2)C(=O)N(C)[C@@H](C)C(=O)N[C@@H](CC(N)=O)C(=O)N2CCC[C@H]2C(=O)N[C@@H](CCN)C(=O)N[C@@H](CC(C)C)C(=O)N2C[C@H](O)C[C@H]2C(=O)N[C@@H](Cc2c[nH]c3ccccc23)C(=O)N[C@@H](CO)C(=O)N[C@@H](Cc2c[nH]c3ccccc23)C(=O)N(C)[C@@H](CCCC)C(=O)N(C)[C@@H](CCCC)C(=O)N[C@@H](CCCNC(=N)N)C(=O)N1)C(N)=O` [Example 11021] ({CH2CO}-Y[NMeA]NP[Dab]L[Hyp]WSW[NMeNle][NMeNle]RCGSGSGK(Palmitoyl)-NH2; thioether N-14): the IC50 is 100 to 1600 nM.
With `CCCCCCCCCCCCCCCC(=O)NCCCC[C@H](NC(=O)[C@H](CO)NC(=O)CNC(=O)CNC(=O)CNC(=O)CNC(=O)[C@@H]1CSCC(=O)N[C@@H](Cc2ccc(O)cc2)C(=O)N(C)[C@@H](C)C(=O)N[C@@H](CC(N)=O)C(=O)N2CCC[C@H]2C(=O)N[C@@H](CCN)C(=O)N[C@@H](CC(C)C)C(=O)N2C[C@H](O)C[C@H]2C(=O)N[C@@H](Cc2c[nH]c3ccccc23)C(=O)N[C@@H](CO)C(=O)N[C@@H](Cc2c[nH]c3ccccc23)C(=O)N(C)[C@@H](CCCC)C(=O)N(C)[C@@H](CCCC)C(=O)N[C@@H](CCCNC(=N)N)C(=O)N1)C(N)=O` [Example 11022] ({CH2CO}-Y[NMeA]NP[Dab]L[Hyp]WSW[NMeNle][NMeNle]RCGGGGSK(Palmitoyl)-NH2; thioether N-14), the IC50 lay within 100 to 1600 nM.
With `CCCCCCCCCCCCCCCC(=O)NCCCC[C@H](NC(=O)[C@H](CO)NC(=O)CNC(=O)[C@H](CO)NC(=O)CNC(=O)[C@@H]1CSCC(=O)N[C@@H](Cc2ccc(O)cc2)C(=O)N(C)[C@@H](C)C(=O)N[C@@H](CC(N)=O)C(=O)N2CCC[C@H]2C(=O)N[C@@H](CCN)C(=O)N[C@@H](CC(C)C)C(=O)N2C[C@H](O)C[C@H]2C(=O)N[C@@H](Cc2c[nH]c3ccccc23)C(=O)N[C@@H](CO)C(=O)N[C@@H](Cc2c[nH]c3ccccc23)C(=O)N(C)[C@@H](CCCC)C(=O)N(C)[C@@H](CCCC)C(=O)N[C@@H](CCCNC(=N)N)C(=O)N1)C(N)=O` [Example 11023] ({CH2CO}-Y[NMeA]NP[Dab]L[Hyp]WSW[NMeNle][NMeNle]RCGSGSK(Palmitoyl)-NH2; thioether N-14), the half-maximal inhibitory concentration (IC50) lay within 100 to 1600 nM.
For `CCCCCCCCCCCCCCCC(=O)NCCCC[C@H](NC(=O)[C@H](CO)NC(=O)CNC(=O)CNC(=O)CNC(=O)[C@@H]1CSCC(=O)N[C@@H](Cc2ccc(O)cc2)C(=O)N(C)[C@@H](C)C(=O)N[C@@H](CC(N)=O)C(=O)N2CCC[C@H]2C(=O)N[C@@H](CCN)C(=O)N[C@@H](CC(C)C)C(=O)N2C[C@H](O)C[C@H]2C(=O)N[C@@H](Cc2c[nH]c3ccccc23)C(=O)N[C@@H](CO)C(=O)N[C@@H](Cc2c[nH]c3ccccc23)C(=O)N(C)[C@@H](CCCC)C(=O)N(C)[C@@H](CCCC)C(=O)N[C@@H](CCCNC(=N)N)C(=O)N1)C(N)=O` [Example 11024] ({CH2CO}-Y[NMeA]NP[Dab]L[Hyp]WSW[NMeNle][NMeNle]RCGGGSK(Palmitoyl)-NH2; thioether N-14), the half-maximal inhibitory concentration (IC50) was in the range of 100 to 1600 nM.
As for `CCCCCCCCCCCCCCCC(=O)NCCCC[C@H](NC(=O)[C@H](CC(=O)O)NC(=O)CNC(=O)CNC(=O)[C@@H]1CSCC(=O)N[C@@H](Cc2ccc(O)cc2)C(=O)N(C)[C@@H](C)C(=O)N[C@@H](CC(N)=O)C(=O)N2CCC[C@H]2C(=O)N[C@@H](CCN)C(=O)N[C@@H](CC(C)C)C(=O)N2C[C@H](O)C[C@H]2C(=O)N[C@@H](Cc2c[nH]c3ccccc23)C(=O)N[C@@H](CO)C(=O)N[C@@H](Cc2c[nH]c3ccccc23)C(=O)N(C)[C@@H](CCCC)C(=O)N(C)[C@@H](CCCC)C(=O)N[C@@H](CCCNC(=N)N)C(=O)N1)C(N)=O` [Example 11026] ({CH2CO}-Y[NMeA]NP[Dab]L[Hyp]WSW[NMeNle][NMeNle]RCGGDK(Palmitoyl)-NH2; thioether N-14), the half-inhibitory concentration (IC50) was in the range of 100 to 1600 nM.
With `CCCCCCCCCCCCCCCC(=O)NCCCC[C@H](NC(=O)[C@H](CC(=O)O)NC(=O)CNC(=O)[C@@H]1CSCC(=O)N[C@@H](Cc2ccc(O)cc2)C(=O)N(C)[C@@H](C)C(=O)N[C@@H](CC(N)=O)C(=O)N2CCC[C@H]2C(=O)N[C@@H](CCN)C(=O)N[C@@H](CC(C)C)C(=O)N2C[C@H](O)C[C@H]2C(=O)N[C@@H](Cc2c[nH]c3ccccc23)C(=O)N[C@@H](CO)C(=O)N[C@@H](Cc2c[nH]c3ccccc23)C(=O)N(C)[C@@H](CCCC)C(=O)N(C)[C@@H](CCCC)C(=O)N[C@@H](CCCNC(=N)N)C(=O)N1)C(N)=O` [Example 11027] ({CH2CO}-Y[NMeA]NP[Dab]L[Hyp]WSW[NMeNle][NMeNle]RCGDK(Palmitoyl)-NH2; thioether N-14), the half-maximal inhibitory concentration (IC50) lay in the range of 100 to 1600 nM.
With `CCCCCCCCCCCCCCCC(=O)NCCCC[C@H](NC(=O)CCOCCOCCOCCOCCOCCOCCNC(=O)CNC(=O)C1CSCC(=O)N[C@@H](Cc2ccc(O)cc2)C(=O)N(C)[C@@H](C)C(=O)N[C@@H](CC(=O)O)C(=O)N2CCC[C@H]2C(=O)N[C@@H](Cc2cnc[nH]2)C(=O)N[C@@H](CC(C)C)C(=O)N2C[C@H](O)C[C@H]2C(=O)N[C@@H](Cc2c[nH]c3ccccc23)C(=O)N[C@@H](CO)C(=O)N[C@@H](Cc2c[nH]c3ccccc23)C(=O)N(C)[C@@H](CCCC)C(=O)N(C)[C@@H](CCCC)C(=O)N[C@@H](CCCNC(=N)N)C(=O)N1)C(N)=O` (stereo partly shown) [Example 11029] ({CH2CO}-Y[NMeA]DPHL[Hyp]WSW[NMeNle][NMeNle]R[ξC]G[PEG6]K(Palmitoyl)-NH2; thioether N-14), the 50% inhibitory concentration (IC50) fell in the range of 100 to 1600 nM.
Take `CCCC[C@H]1C(=O)N(C)[C@@H](CCCC)C(=O)N[C@@H](CC(C)C)C(=O)N[C@H](C(=O)NCCOCCOCCOCCOCCOCCOCCC(=O)O)CSCC(=O)N[C@@H](Cc2ccc(O)cc2)C(=O)N(C)[C@@H](C)C(=O)N[C@@H](CC(N)=O)C(=O)N2CCC[C@H]2C(=O)N[C@@H](Cc2cnc[nH]2)C(=O)N[C@@H](CCC(=O)O)C(=O)N2C[C@H](O)C[C@@H]2C(=O)N[C@@H](Cc2c[nH]c3ccccc23)C(=O)N[C@@H](CCN)C(=O)N[C@@H](Cc2cn(CC(=O)O)c3ccccc23)C(=O)N1C` [Example 11044] ({CH2CO}-Y[NMeA]NPHE[d(cisHyp)]W[Dab][Trp(1-CH2COOH)][NMeNle][NMeNle]LC[PEG6]-OH; thioether N-14): the IC50 lay in the range of 10 to 99 nM.
For the compound `CCCC[C@H]1C(=O)N(C)[C@@H](CCCC)C(=O)N[C@@H](CC(C)C)C(=O)N[C@H](C(=O)NCCOCCOCCOCCOCCOCCOCCC(=O)O)CSCC(=O)N[C@@H](Cc2ccc(O)cc2)C(=O)N(C)[C@@H](C)C(=O)N[C@@H](CC(N)=O)C(=O)N2CCC[C@H]2C(=O)N[C@@H](CO)C(=O)N[C@@H](CCC(N)=O)C(=O)N2C[C@H](O)C[C@@H]2C(=O)N[C@@H](Cc2c[nH]c3ccccc23)C(=O)N[C@@H](CO)C(=O)N[C@@H](Cc2cn(CC(=O)O)c3ccccc23)C(=O)N1C` [Example 11045] ({CH2CO}-Y[NMeA]NPSQ[d(cisHyp)]WS[Trp(1-CH2COOH)][NMeNle][NMeNle]LC[PEG6]-OH; thioether N-14), the half-inhibitory concentration (IC50) lay within 10 to 99 nM.
As to `CCCC[C@H]1C(=O)N(C)[C@@H](CCCC)C(=O)N[C@@H](CC(C)C)C(=O)N[C@H](C(=O)NCCOCCOCCOCCOCCOCCOCCC(=O)O)CSCC(=O)N[C@@H](Cc2ccc(O)cc2)C(=O)N(C)[C@@H](C)C(=O)N[C@@H](CC(N)=O)C(=O)N2CCC[C@H]2C(=O)N[C@@H](CO)C(=O)N[C@@H](CCC(N)=O)C(=O)N2C[C@H](O)C[C@@H]2C(=O)N[C@@H](Cc2c[nH]c3ccccc23)C(=O)N[C@@H](CN)C(=O)N[C@@H](Cc2cn(CC(=O)O)c3ccccc23)C(=O)N1C` [Example 11046] ({CH2CO}-Y[NMeA]NPSQ[d(cisHyp)]W[Dap][Trp(1-CH2COOH)][NMeNle][NMeNle]LC[PEG6]-OH; thioether N-14), the IC50 lay in the range of 10 to 99 nM.
Turning to `CCCC[C@H]1C(=O)N(C)[C@@H](CCCC)C(=O)N[C@@H](CC(C)C)C(=O)N[C@H](C(=O)NCCOCCOCCOCCOCCOCCOCCC(=O)NCCCCCCCCCCC(=O)O)CSCC(=O)N[C@@H](Cc2ccc(O)cc2)C(=O)N(C)[C@@H](C)C(=O)N[C@@H](CC(N)=O)C(=O)N2CCC[C@H]2C(=O)N[C@@H](CO)C(=O)N[C@@H](CCC(N)=O)C(=O)N2C[C@H](O)C[C@@H]2C(=O)N[C@@H](Cc2c[nH]c3ccccc23)C(=O)N[C@@H](CO)C(=O)N[C@@H](Cc2cn(CC(=O)O)c3ccccc23)C(=O)N1C` [Example 11060] ({CH2CO}-Y[NMeA]NPSQ[d(cisHyp)]WS[Trp(1-CH2COOH)][NMeNle][NMeNle]LC[PEG6][Aun]-OH; thioether N-14), the concentration for half-maximal inhibition (IC50) lay within 100 to 1600 nM.
Consider `CCCC[C@H]1C(=O)N(C)[C@@H](CCCC)C(=O)N[C@@H](CC(C)C)C(=O)N[C@H](C(=O)NCCOCCOCCOCCOCCOCCOCCC(=O)NCCCCCCCCCCC(=O)O)CSCC(=O)N[C@@H](Cc2ccc(O)cc2)C(=O)N(C)[C@@H](C)C(=O)N[C@@H](CC(N)=O)C(=O)N2CCC[C@H]2C(=O)N[C@@H](CN)C(=O)N[C@@H](CCC(N)=O)C(=O)N2C[C@H](O)C[C@@H]2C(=O)N[C@@H](Cc2c[nH]c3ccccc23)C(=O)N[C@@H](CCN)C(=O)N[C@@H](Cc2cn(CC(=O)O)c3ccccc23)C(=O)N1C` [Example 11061] ({CH2CO}-Y[NMeA]NP[Dap]Q[d(cisHyp)]W[Dab][Trp(1-CH2COOH)][NMeNle][NMeNle]LC[PEG6][Aun]-OH; thioether N-14), for which the IC50 was in the range of 100 to 1600 nM.
